According to patent US6184246A, “Inhibition of cytokine production by polymethoxylated flavones” (priority 1999, dated 2001):
Entries after “also recorded” stand apart in the source; their conditions may differ.

Experiments:
MIP-1α = MIP-1α production by LPS-stimulated human monocytes (ELISA); type: cell-based
Method: (§1) Adherent purified human monocytes were cultured in the presence of graded concentrations of heptamethoxyflavone for 30 min. The monocyte cultures were then adjusted to contain 20 ng/mL LPS. After 14 h of culture, the cytokines TNFα, IL-6, IL-8, MIP-1α, and IL-10 were assayed in the culture supernatants and IL-1β was assayed in the cell lysates using specific ELISA assays as described below. Values expressed as the percent of cytokine produced in flavone-free cultures are the means and standard errors determined using monocytes isolated from three independent donors.
(§2) Isolation of human peripheral blood monocytes: Peripheral blood mononuclear cells (PBMCs) were isolated from residual source leukocytes (Bonfils Blood Center, CO) by density gradient centrifugation using Ficoll-Paque Plus (Pharmacia, Sweden). Monocytes were purified further by plastic adherence (see below) or by centrifugal elutriation as described previously (Manthey, C. L., et al., J. Leuk Biol., 64: 409-416 (1998)).
(§3) IL-1β was measured in cell lysates by ELISA.

intracellular cAMP = test: Cellular cAMP in human monocytes (EIA); type: cell-based; conditions: 100 μM, 30 min
Method: To test flavones for the ability to cause an increase in cellular cAMP, monocytes were purified from PBMC by centrifugal elutriation. Monocytes were resuspended to 5×10^6 /mL in complete medium and 2 mL cell suspension were dispensed into FALCON 17×100 mm polypropylene culture tubes (Becton Dickinson). The cells were precultured 2 h at 37° C. and 5% CO2, and then cultured an additional 30 min following adjusting culture media to contain 100 μM of the flavone of interest or 200 μM IBMX (3-isobutyl-1-methylxanthine). Cells were then collected by centrifugation, lysed in 300 μL of ice cold aqueous solution containing 10 mM HEPES (pH 7.6) and 1% NP40. The lysates were applied to 100 mg columns of Amprep SAX resin (Amersham). The columns were then rinsed with 1 mL of methanol and the cAMP was eluted in 600 μL of methanol containing 0.01 M HCl. The eluates were chilled on dry ice and dried under vacuum. The Amersham Biotrak cAMP EIA assay was used to measure cAMP content of residues resuspended in 400 μL of assay buffer.

IL-1β = IL-1β production by LPS-stimulated human monocytes (ELISA, cell lysates); type: cell-based
Method: as §1, §2, §3

IL-1β mRNA = IL-1β mRNA level by RT-PCR in LPS-stimulated monocytes; type: cell-based, human; conditions: data not shown
Method: (§4) Analysis of specific mRNA levels by reverse transcriptase-polymerase chain reaction (RT-PCR): Monocytes were purified from PBMC by centrifugal elutriation. Monocytes were resuspended to 5×10^6 /mL in complete medium and 2 mL of cell suspension were dispensed into FALCON 17×100 mm polypropylene culture tubes (Becton Dickinson). Cultures were adjusted to contain graded concentrations of HMF and cultured 30 min at 37° C. and 5% CO2. Cultures were then adjusted to contain 20 ng/mL LPS for an additional 90 min. Culture media was then removed and monocytes were lysed in RNAzol (Teltext Inc., Friendswood, Tex.) and total RNA was isolated according to the manufacturer's instructions. Relative levels of TNFα and IL-1β mRNA were then measured by RT-PCR as previously described (Manthey, C. L., J. Leuk Biol. 1998, 64: 409-416). PCR was carried out in the presence of [α-^32 P]dCTP. Radiolabeled products were resolved by agarose gel electrophoresis and quantified using a PhosphorImager (Molecular Dynamics, Sunnyvale, Calif.). For these reactions, the following primer sets were used:
IL-1β, (5'): GACACATGGGATAACGAGGCT, (3'): ACGCAGGACAGGTACAGATTC.

IL-8 = IL-8 production by LPS-stimulated human monocytes (ELISA); type: cell-based
Method: as §1, §2, §3

TNFα mRNA = TNFα mRNA level by RT-PCR in LPS-stimulated monocytes; type: cell-based, human; conditions: graded concentrations, 20 ng/mL LPS, 90 min, GAPDH internal standard
Method: Primary elutriated human monocytes were cultured in the presence of graded concentrations of HMF for 30 min. The monocyte cultures were then adjusted to contain 20 ng/mL LPS. At 90 min of culture, monocytes were harvested by centrifugation, and RNA was isolated from the cell pellet. Relative levels of TNFα and the constitutively expressed glyceraldehyde 3-phosphate dehydrogenase (GAPDH) mRNA were determined by RT-PCR as described below.
as §4, with “Culture media was then removed and monocytes were lysed in RNAzol (Teltext Inc., Friendswood, Tex.) and total RNA was isolated according to the manufacturer's instructions.” left out, “PCR was carried out in the presence of [α-^32 P]dCTP.” left out, “For these reactions, the following primer sets were used:” left out

IL-6 = IL-6 production by LPS-stimulated human monocytes (ELISA); type: cell-based
Method: as §1, §2, §3

TNFα = TNFα production by LPS-stimulated human monocytes (ELISA); type: cell-based
Method: Isolation of human peripheral blood monocytes: Peripheral blood mononuclear cells (PBMCs) were isolated from residual source leukocytes (Bonfils Blood Center, CO) by density gradient centrifugation using Ficoll-Paque Plus (Pharmacia, Sweden).
To measure the impact of the flavones on cytokine production, PBMCs were resuspended to 4×10^6 /mL in complete medium, i.e., Dulbecco's Modified Eagle Medium containing 30% FCS, 2 mM glutamine, 100 U/mL Penicillin-G, and 100 μg/mL streptomycin. […] Nonadherent cells (lymphocytes) were separated from the plastic adherent cells (monocytes) by washing the wells twice with 200 μL of medium. The monocytes were cultured an additional 30 min in 100 μL of complete medium containing graded concentrations of the compound of interest and the cultures were then adjusted to contain […] LPS to stimulate cytokine production. Culture supernatants were harvested 14 h later, and cells were lysed by addition of 50 μL of Dulbecco's phosphate buffered saline containing 1% NP40. Culture supernatants were evaluated for TNFα, IL-1β, IL-6, IL-8, IL-10, and MIP-1α content using specific enzyme-linked immunosorbent assays (ELISA) purchased from R&D Systems. IL-1β was measured in cell lysates by ELISA. Lactate dehydrogenase (LDH) content of cell lysates was measured to determine compound effects on cell viability: To 50 μL of lysate were added 200 μL of 50 mM sodium pyrophosphate buffer (pH 8.9) containing 50 mM lactic acid and 4 mg/mL β-nicotinamide adenine dinucleotide (Sigma); rates of reduction of nicotinamide adenine dinucleotide were measured at room temperature at 340 nm.

[1] = tested on: type-IV phosphodiesterase semi-purified from U937 cells; test: Phosphodiesterase cAMP SPA enzyme assay; type: biochemical; conditions: hydrolysis of cAMP; read-out: concentration inhibiting phosphodiesterase activity 50%
Method: PDE semipurified from U937 monocytic cells was evaluated for the ability to catalyze the hydrolysis of cAMP in the presence of graded concentrations of flavone, myricetin, and HMF as described below. The rates are plotted as percent of control-reactions, where no flavonoids were present. Testing flavones as phosphodiesterase inhibitors and inducers of cellular cyclic adenosine monophosphate (cAMP): The Phosphodiesterase cAMP SPA Enzyme Assay (Amersham, Arlington Heights, Ill.) was used to test the ability of flavones to inhibit cAMP hydrolysis catalyzed by phosphodiesterase. The phosphodiesterase used in this study was semi-purified from U937 cells, and was determined to be mostly the type-IV isoform based on sensitivity to selected isoform inhibitors (Trophy, T. J., J. Pharmacol. Experimental Therapeutics, 1195-1205 (1992)).

IL-10 = IL-10 production by LPS-stimulated human monocytes (ELISA); type: cell-based
Method: as §1, §2, §3

[2] = cytokine suppression profile, HMF compared against IBMX (Table 2)

IC50 (MIP-1α; Monocyte, monocytes from three independent human donors, LPS, 14 h, read-out: IC50 for inhibition of MIP-1α): 7.3 ± 0.7 µM
IC50 (TNFα; Monocyte, human monocytes, 30 min preculture with compound, LPS, 14 h, 30% FCS, read-out: IC50 for inhibition of TNFα production): 5 µM
IC50 [1]: 2 µM
IC50 (IL-10; Monocyte, monocytes from three independent human donors, LPS, 14 h, read-out: IC50 for inhibition of IL-10): 12.3 ± 3.5 µM
SMILES: COc1ccc(-c2oc3c(OC)c(OC)c(OC)c(OC)c3c(=O)c2OC)cc1OC [HMF, 3,5,6,7,8,3',4'-heptamethoxyflavone]
inhibition of MIP-1α production (in words) (MIP-1α; LPS-stimulated human monocytes): potent inhibitor
increase of monocyte cAMP levels over media alone (in words) (intracellular cAMP): at least a doubling
intracellular cAMP level (intracellular cAMP; media alone 2.7±0.9): 5.7±1.8 pmol/10^7 cells
inhibition of lipopolysaccharide-induced expression of IL-1β (IL-1β; 100 μM): no inhibition
suppression of IL-1β production (IL-1β; [2]): neither suppressed
induction of IL-1β mRNA (IL-1β mRNA): not effected
inhibition of lipopolysaccharide-induced expression of IL-8 (IL-8; 100 μM): no inhibition
suppression of IL-8 production (IL-8; [2]): neither suppressed
suppression of lipopolysaccharide-induced TNFα mRNA expression (TNFα mRNA): suppress; also recorded: selectively blocks
inhibition of lipopolysaccharide-induced expression of IL-6 (IL-6; 100 μM): no inhibition
activation at 100 µM (IL-6; Homo sapiens, Monocyte, 14 h, 100 μM, read-out: increase of IL-6 expression): 30%
suppression of IL-6 production (IL-6; [2]): neither suppressed
inhibition of TNFα production (in words) (TNFα; LPS-stimulated human monocytes): potent inhibitor
inhibition of IL-10 production (in words) (IL-10; LPS-stimulated human monocytes): potent inhibitor; also recorded: inhibition
